Here are results for 22 compounds from PubChem BioAssay AID192 (DTP/NCI, 2004).

“And” between values parts separate entries of the source, which are not always exact repeats. Equal values may be shown once. Toxic doses and inconclusive results are not listed.

The subject of the test is BDF1 mice, B16 melanoma ip, median survival T/C. As to the kind of experiment: NCI In Vivo Anticancer Drug Screen. Data for tumor model B16 Melanoma (intraperitoneal) in B6D2F1 (BDF1) mice. As to conditions: endpoint: median survival time, higher = longer survival. The method in brief:
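The ratio T/C compares compound-treated mice with vehicle-treated controls, using survival or tumor size as the endpoint in a transplantable tumor model.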

[1] abbreviates: dose: 6.25 mg/kg/injection, schedule: Q01DX009 (ip), vehicle: saline with Tween-80.
The mark [2] stands for this setting: dose: 25.0 mg/kg/injection, schedule: Q01DX009 (ip), vehicle: saline with Tween-80.
Setting [3] is: dose: 6.25 mg/kg/injection, schedule: Q01DX009 (ip), vehicle: saline.
Setting [4] is: dose: 12.5 mg/kg/injection, schedule: Q01DX009 (ip), vehicle: saline.
The mark [5] stands for this setting: dose: 25.0 mg/kg/injection, schedule: Q01DX009 (ip), vehicle: saline.
The mark [6] stands for this setting: dose: 12.5 mg/kg/injection, schedule: Q01DX009 (ip), vehicle: saline with Tween-80.
Where [7] appears, read: dose: 50.0 mg/kg/injection, schedule: Q01DX009 (ip), vehicle: saline with Tween-80.
Setting [8] is: dose: 100.0 mg/kg/injection, schedule: Q01DX009 (ip), vehicle: saline with Tween-80.
Where [9] appears, read: dose: 6.25 mg/kg/injection, schedule: Q01DX009 (ip), vehicle: Klucel (hydroxypropylcellulose) (HPC).
The mark [10] stands for this setting: dose: 12.5 mg/kg/injection, schedule: Q01DX009 (ip), vehicle: Klucel (hydroxypropylcellulose) (HPC).
Setting [11] is: dose: 25.0 mg/kg/injection, schedule: Q01DX009 (ip), vehicle: Klucel (hydroxypropylcellulose) (HPC).
Setting [12] is: dose: 100.0 mg/kg/injection, schedule: Q01DX009 (ip), vehicle: Klucel (hydroxypropylcellulose) (HPC).
Where [13] appears, read: dose: 200.0 mg/kg/injection, schedule: Q01DX009 (ip), vehicle: Klucel (hydroxypropylcellulose) (HPC).
Setting [14] is: dose: 50.0 mg/kg/injection, schedule: Q01DX009 (ip), vehicle: saline.

On to `C/C(=N/NC(N)=S)c1ccc2ccccc2c1`, for which the T/C is 111 % of control (dose: 6.0 mg/kg/injection, schedule: Q01DX009 (ip), vehicle: saline with Tween-80) and 105 % of control (dose: 12.0 mg/kg/injection, schedule: Q01DX009 (ip), vehicle: saline with Tween-80).
Consider `CCCCCCCCCCCCCCCC(=O)N(C/C=C/CN(CCCN(C)C)C(=O)CCCCCCCCCCCCCCC)CCCN(C)C`, for which the T/C is 86 % of control (dose: 0.78 mg/kg/injection, schedule: Q01DX009 (ip), vehicle: saline with Tween-80); 90 % of control (dose: 1.56 mg/kg/injection, schedule: Q01DX009 (ip), vehicle: saline); 104 % of control (dose: 1.6 mg/kg/injection, schedule: Q01DX009 (ip), vehicle: saline with Tween-80); 97 % of control (dose: 3.13 mg/kg/injection, schedule: Q01DX009 (ip), vehicle: saline with Tween-80); 95 % of control (dose: 3.2 mg/kg/injection, schedule: Q01DX009 (ip), vehicle: saline with Tween-80); 95 % of control under setting [1]. The T/C runs as follows: (dose: 6.3 mg/kg/injection, schedule: Q01DX009 (ip), vehicle: saline with Tween-80) 91 % of control; (dose: 12.5 mg/kg/injection, schedule: Q04DX003 (ip), vehicle: saline with Tween-80) 177 % of control; under setting [2], 158 % of control; (dose: 25.0 mg/kg/injection, schedule: Q04DX003 (ip), vehicle: saline with Tween-80) 163 % of control; (dose: 50.0 mg/kg/injection, schedule: Q04DX003 (ip), vehicle: saline with Tween-80) 155 % of control.
For `CN(C)CCCCNc1ccc(NCCCCN(C)C)c2c1C(=O)c1c(O)ccc(O)c1C2=O`, the T/C was 95 % of control under setting [3]; 93 % of control under setting [4]; 90 % of control and 110 % of control under setting [5].
With `O=c1ccc2nc3ccccc3sc-2c1`, the T/C is 93 % of control under setting [6], 86 % of control under setting [2], 95 % of control under setting [7] and 91 % of control under setting [8].
On to `Cc1c(Cl)cccc1NC(=O)Oc1cc(Cl)c(Cl)cc1Cl`, for which the T/C is, setting by setting: under setting [9], 96 % of control; under setting [10], 98 % of control; under setting [11], 89 % of control and 98 % of control.
In the case of `COC(=O)c1ccc(C(=O)OC)cc1`, the T/C by setting is: (dose: 0.05 mg/kg/injection, schedule: Q04DX003 (ip), vehicle: water) 103 % of control; (dose: 0.1 mg/kg/injection, schedule: Q04DX003 (ip), vehicle: water) 96 % of control; (dose: 0.2 mg/kg/injection, schedule: Q04DX003 (ip), vehicle: water) 106 % of control; (dose: 0.4 mg/kg/injection, schedule: Q04DX003 (ip), vehicle: water) 113 % of control.
Regarding `C/C(=C\C(=O)Nc1ncn[nH]1)Nc1ncn[nH]1`, the T/C is, setting by setting: (dose: 50.0 mg/kg/injection, schedule: Q01DX009 (ip), vehicle: Klucel (hydroxypropylcellulose) (HPC)) 106 % of control; under setting [12], 102 % of control; under setting [13], 90 % of control; (dose: 400.0 mg/kg/injection, schedule: Q01DX009 (ip), vehicle: Klucel (hydroxypropylcellulose) (HPC)) 101 % of control.
With `COc1ccc(OC)c(NC=O)c1`, the T/C reads like this: under setting [1], 91 % of control; under setting [6], 106 % of control; under setting [2], 90 % of control and 97 % of control.
In the case of `C[n+]1ccccc1/C=N/O`, the T/C (dose: 18.75 mg/kg/injection, schedule: Q01DX009 (ip), vehicle: saline) is 100 % of control; the T/C (dose: 37.5 mg/kg/injection, schedule: Q01DX009 (ip), vehicle: saline) was 107 % of control; the T/C (dose: 75.0 mg/kg/injection, schedule: Q01DX009 (ip), vehicle: saline) was 88 % of control and 106 % of control.
As to `CCC(NC(=O)OC(C)(C)C)C(=O)O` (stereo not drawn), the T/C was 100 % of control under setting [3]; 95 % of control under setting [4]; 95 % of control under setting [5]; 88 % of control and 96 % of control under setting [14].
In the case of `Cc1ccc(N)c(Br)c1`, the T/C was 88 % of control under setting [2], 88 % of control under setting [7] and 91 % of control under setting [8].
Consider `CNC(C)C1(O)Cc2c(O)c3c(c(O)c2C(OC2CC(N)C(O)C(C)O2)C1)C(=O)c1c(OC)cccc1C3=O` (stereo not drawn), for which the T/C is 108 % of control (dose: 0.5 mg/kg/injection, schedule: Q01DX009 (ip), vehicle: water); 112 % of control (dose: 1.0 mg/kg/injection, schedule: Q01DX009 (ip), vehicle: water); 163 % of control (dose: 4.0 mg/kg/injection, schedule: Q01DX009 (ip), vehicle: water); 172 % of control (dose: 8.0 mg/kg/injection, schedule: Q01DX009 (ip), vehicle: water).
For the compound `O=NNc1cnccn1`, the T/C (dose: 25.0 mg/kg/injection, schedule: Q01DX009 (ip), vehicle: water) was 164 % of control.
On to `c1ccc([B-]2([C+]3CCCCC3)N3CCCCC3C3CCCCN32)cc1` (stereo not drawn), for which the T/C by setting is: under setting [10], 106 % of control; under setting [11], 93 % of control.
On to `CCOC(=O)CCCN(c1ccccc1CC(=O)OCC)S(C)(=O)=O`, for which the T/C by setting is: (dose: 100.0 mg/kg/injection, schedule: Q04DX003 (ip), vehicle: Klucel (hydroxypropylcellulose) (HPC)) 96 % of control; (dose: 200.0 mg/kg/injection, schedule: Q04DX003 (ip), vehicle: Klucel (hydroxypropylcellulose) (HPC)) 104 % of control; (dose: 400.0 mg/kg/injection, schedule: Q04DX003 (ip), vehicle: Klucel (hydroxypropylcellulose) (HPC)) 96 % of control.
In the case of `COc1ccc(N=C(N)NC#N)cc1`, the T/C runs as follows: under setting [12], 105 % of control; under setting [13], 99 % of control.
Turning to `CC(CC(C)O)=NCCN=C(C)CC(C)O.[Ni]` (stereo not drawn), the T/C (dose: 1.5 mg/kg/injection, schedule: Q04DX003 (ip), vehicle: saline with Tween-80) was 108 % of control; the T/C (dose: 2.0 mg/kg/injection, schedule: Q04DX003 (ip), vehicle: saline with Tween-80) was 100 % of control; the T/C (dose: 3.0 mg/kg/injection, schedule: Q04DX003 (ip), vehicle: saline with Tween-80) was 94 % of control; the T/C (dose: 4.5 mg/kg/injection, schedule: Q04DX003 (ip), vehicle: saline with Tween-80) is 86 % of control.
In the case of `Cn1c(C[N+](C)(C)C)cc2ccccc21`, the T/C was 97 % of control under setting [2], 94 % of control under setting [7] and 86 % of control under setting [8].
Regarding `NC(CCC(=O)NC(CS)C(=O)NCC(=O)O)C(=O)O` (stereo not drawn), the T/C is 124 % of control under setting [14]; 98 % of control (dose: 100.0 mg/kg/injection, schedule: Q01DX009 (ip), vehicle: saline); 98 % of control (dose: 200.0 mg/kg/injection, schedule: Q01DX009 (ip), vehicle: saline); 100 % of control (dose: 400.0 mg/kg/injection, schedule: Q01DX009 (ip), vehicle: saline).
With `CC(=O)N1CCC2(CC1)SSC1(CCN(C(C)=O)CC1)S2`, the T/C is, setting by setting: (dose: 5.0 mg/kg/injection, schedule: Q01DX009 (ip), vehicle: saline with Tween-80) 105 % of control; (dose: 10.0 mg/kg/injection, schedule: Q01DX009 (ip), vehicle: saline with Tween-80) 112 % of control.
For the compound `COc1ccc(C(=O)/C=C/c2ccc3c(c2)OCO3)cc1OC`, the T/C runs as follows: under setting [12], 96 % of control; under setting [13], 93 % of control.
Consider `O=C(CN1CC1)NCCCCCCCCNC(=O)CN1CC1`, for which the T/C reads like this: under setting [9], 124 % of control; under setting [11], 93 % of control.
